#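 In this assay, cells in 96-well plates receive the compound at five concentrations for 48 hours. Endpoints are linearly interpolated between the surrounding concentrations. GI50 is the concentration that inhibits growth by half.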 Calls of active or inactive are those of the source. Cut-off read from the data, not from the text of the source: active = GI50 up to about 1.1 µM and inactive = higher.
# What was measured:
# Assay in all cases: NCI-60 cell line screen, 48 h
# SR = system: SR
# OVCAR-3 = system: OVCAR-3
# SW-620 = system: SW-620
# NCI-H460 = system: NCI-H460
# RXF 393 = system: RXF 393
# HOP-92 = system: HOP-92
# K562 = system: K562
# UO-31 = system: UO-31
# RPMI-8226 = system: RPMI-8226
# M14 = system: M14
# OVCAR-8 = system: OVCAR-8
# KM12 = system: KM12
# TK-10 = system: TK-10
# NCI-H23 = system: NCI-H23
# SF-268 = system: SF-268
# A498 = system: A498
# HCT-116 = system: HCT-116
# EKVX = system: EKVX
Compound,GI50 (SR),GI50 (OVCAR-3),GI50 (SW-620),GI50 (NCI-H460),GI50 (RXF 393),GI50 (HOP-92),GI50 (K562),GI50 (UO-31),GI50 (RPMI-8226),GI50 (M14),GI50 (OVCAR-8),GI50 (KM12),GI50 (TK-10),GI50 (NCI-H23),GI50 (SF-268),GI50 (A498),GI50 (HCT-116),GI50 (EKVX)
O=S(=O)(c1ccccc1)C(CN1CCCCC1)S(=O)(=O)c1ccccc1,> 100 µM (inactive),> 100 µM (inactive),> 100 µM (inactive),> 100 µM (inactive),> 100 µM (inactive),> 100 µM (inactive),> 100 µM (inactive),> 100 µM (inactive),> 100 µM (inactive),> 100 µM (inactive),> 100 µM (inactive),> 100 µM (inactive),> 100 µM (inactive),> 100 µM (inactive),> 100 µM (inactive),–,–,–
CC1=C(c2cc(C(=O)Nc3cccc(C(F)(F)F)c3)ncn2)Sc2ccccc2N1,> 100 µM (inactive),> 100 µM (inactive),> 100 µM (inactive),> 100 µM (inactive),–,> 100 µM (inactive),> 100 µM (inactive),> 100 µM (inactive),> 100 µM (inactive),> 100 µM (inactive),> 100 µM (inactive),> 100 µM (inactive),> 100 µM (inactive),> 100 µM (inactive),> 100 µM (inactive),> 100 µM (inactive),> 100 µM (inactive),> 100 µM (inactive)
CC1(C)CC(C)(C)CC(O)(C2(O)CC(C)(C)CC(C)(C)C2)C1,> 100 µM (inactive),> 100 µM (inactive),> 100 µM (inactive),> 100 µM (inactive),–,–,> 100 µM (inactive),> 100 µM (inactive),> 100 µM (inactive),> 100 µM (inactive),> 100 µM (inactive),> 100 µM (inactive),> 100 µM (inactive),> 100 µM (inactive),> 100 µM (inactive),–,> 100 µM (inactive),> 100 µM (inactive)
Cc1ccc(S(=O)(=O)N/N=C\c2c3ccccc3[n+]([O-])c3ccccc23)cc1,–,16.1 µM (inactive),2.18 µM (inactive),2.44 µM (inactive),–,3.68 µM (inactive),0.36 µM (active),14.1 µM (inactive),0.415 µM (active),4.57 µM (inactive),4.03 µM (inactive),9.55 µM (inactive),4.9 µM (inactive),4.48 µM (inactive),4.23 µM (inactive),3.8 µM (inactive),0.472 µM (active),20 µM (inactive)
CN(C)c1ccc(/C=C(\NC(=O)c2ccccc2)c2nc3ccc4c(c3[nH]2)C(=O)c2ccccc2C4=O)cc1,–,32.2 µM (inactive),33.2 µM (inactive),29.1 µM (inactive),18.9 µM (inactive),12.8 µM (inactive),26.9 µM (inactive),1.33 µM (inactive),3.18 µM (inactive),53.8 µM (inactive),37.4 µM (inactive),5.19 µM (inactive),17.1 µM (inactive),18.1 µM (inactive),7.14 µM (inactive),6.61 µM (inactive),20.9 µM (inactive),48.1 µM (inactive)
CC(=O)N(O)Cc1ccccc1,> 100 µM (inactive),> 100 µM (inactive),> 100 µM (inactive),> 100 µM (inactive),> 100 µM (inactive),> 100 µM (inactive),> 100 µM (inactive),> 100 µM (inactive),> 100 µM (inactive),> 100 µM (inactive),> 100 µM (inactive),> 100 µM (inactive),> 100 µM (inactive),> 100 µM (inactive),> 100 µM (inactive),–,> 100 µM (inactive),–
CC1C2=C(O)CC(C)(C)CC2=NC2=C1C(=O)CC(C)(C)C2 (stereo not given),> 100 µM (inactive),> 100 µM (inactive),> 100 µM (inactive),> 100 µM (inactive),–,> 100 µM (inactive),91.8 µM (inactive),> 100 µM (inactive),> 100 µM (inactive),> 100 µM (inactive),> 100 µM (inactive),> 100 µM (inactive),> 100 µM (inactive),> 100 µM (inactive),> 100 µM (inactive),> 100 µM (inactive),–,> 100 µM (inactive)
Cn1c(-c2ccccc2)c/c(=N\NS(C)(=O)=O)c2cc(S(=O)(=O)O)ccc21,> 100 µM (inactive),> 100 µM (inactive),> 100 µM (inactive),> 100 µM (inactive),> 100 µM (inactive),> 100 µM (inactive),> 100 µM (inactive),> 100 µM (inactive),> 100 µM (inactive),> 100 µM (inactive),> 100 µM (inactive),> 100 µM (inactive),> 100 µM (inactive),> 100 µM (inactive),> 100 µM (inactive),–,> 100 µM (inactive),> 100 µM (inactive)
NCC(=O)OCN1C(=O)C2C3C=CC(C2C1=O)C1C2C(=O)N(COC(=O)CN)C(=O)C2C31 (stereo not given),–,35 µM (inactive),24.4 µM (inactive),17.3 µM (inactive),24 µM (inactive),> 100 µM (inactive),28.6 µM (inactive),56.8 µM (inactive),28 µM (inactive),18.9 µM (inactive),20.3 µM (inactive),20.8 µM (inactive),53.1 µM (inactive),29.2 µM (inactive),23.4 µM (inactive),87.5 µM (inactive),14.6 µM (inactive),> 100 µM (inactive)
C=CCNC(=O)N(CCCCC(NC(C)=O)C(=O)NCc1ccccc1)Cc1ccccc1 (stereo not given),–,> 100 µM (inactive),> 100 µM (inactive),> 100 µM (inactive),> 100 µM (inactive),65.8 µM (inactive),> 100 µM (inactive),> 100 µM (inactive),> 100 µM (inactive),> 100 µM (inactive),> 100 µM (inactive),> 100 µM (inactive),> 100 µM (inactive),> 100 µM (inactive),> 100 µM (inactive),> 100 µM (inactive),–,> 100 µM (inactive)
CCCCCCCOc1ccc(/C=C\c2cc[n+](CCCCCCCC[n+]3ccc(/C=C\c4ccc(OCCCCCCC)cc4)cc3)cc2)cc1,–,19.1 µM (inactive),–,5.51 µM (inactive),> 100 µM (inactive),> 100 µM (inactive),–,19.5 µM (inactive),7.29 µM (inactive),17.5 µM (inactive),20.7 µM (inactive),15 µM (inactive),23.9 µM (inactive),28.2 µM (inactive),23.8 µM (inactive),26.6 µM (inactive),13.6 µM (inactive),> 100 µM (inactive)
COc1ccc(NC(=O)C(C)Oc2ccc(OCC3CCCCC3)cc2)cc1 (stereo not given),–,62.5 µM (inactive),–,45.8 µM (inactive),> 100 µM (inactive),–,57.9 µM (inactive),51.4 µM (inactive),–,70.3 µM (inactive),> 100 µM (inactive),> 100 µM (inactive),> 100 µM (inactive),34.5 µM (inactive),> 100 µM (inactive),> 100 µM (inactive),> 100 µM (inactive),–
NC(=S)N/N=C(/CC(=O)c1ccccc1)C(=O)Nc1ccc(Cl)c(Cl)c1,–,37.3 µM (inactive),78.5 µM (inactive),46.7 µM (inactive),> 100 µM (inactive),40 µM (inactive),> 100 µM (inactive),51.2 µM (inactive),73.3 µM (inactive),> 100 µM (inactive),47.6 µM (inactive),65.3 µM (inactive),> 100 µM (inactive),> 100 µM (inactive),> 100 µM (inactive),> 100 µM (inactive),> 100 µM (inactive),33 µM (inactive)
COc1ccc(OC)c2[nH]c(Sc3c([N+](=O)[O-])ncn3C)nc12,–,16.8 µM (inactive),24.5 µM (inactive),38.1 µM (inactive),25.2 µM (inactive),16.9 µM (inactive),–,28.6 µM (inactive),–,20.3 µM (inactive),17.6 µM (inactive),43.1 µM (inactive),23.6 µM (inactive),17.5 µM (inactive),26.5 µM (inactive),31 µM (inactive),21.7 µM (inactive),23.1 µM (inactive)
Cc1nc2c(n1Cc1ccc(F)cc1)C(=O)c1ccccc1C2=O,4.29 µM (inactive),15.1 µM (inactive),41.3 µM (inactive),4.07 µM (inactive),14.9 µM (inactive),–,5.61 µM (inactive),> 100 µM (inactive),–,> 100 µM (inactive),35.4 µM (inactive),42.2 µM (inactive),> 100 µM (inactive),13.2 µM (inactive),4.6 µM (inactive),–,6.89 µM (inactive),71 µM (inactive)
COc1ccc(OC(C(=O)O)c2ccccc2)c2c1CCCC2=O (stereo not given),–,> 100 µM (inactive),> 100 µM (inactive),> 100 µM (inactive),–,> 100 µM (inactive),> 100 µM (inactive),> 100 µM (inactive),> 100 µM (inactive),> 100 µM (inactive),> 100 µM (inactive),> 100 µM (inactive),> 100 µM (inactive),> 100 µM (inactive),> 100 µM (inactive),> 100 µM (inactive),> 100 µM (inactive),> 100 µM (inactive)
CCCN(CCCC(NC(C)=O)C(=O)NCc1ccccc1)C(=O)NC (stereo not given),–,> 100 µM (inactive),> 100 µM (inactive),> 100 µM (inactive),> 100 µM (inactive),> 100 µM (inactive),> 100 µM (inactive),> 100 µM (inactive),> 100 µM (inactive),> 100 µM (inactive),> 100 µM (inactive),> 100 µM (inactive),> 100 µM (inactive),> 100 µM (inactive),> 100 µM (inactive),> 100 µM (inactive),> 100 µM (inactive),> 100 µM (inactive)
